Measurements from PubChem BioAssay AID179 (DTP/NCI, 2004).
“And” between values parts separate entries of the source, which are not always exact repeats. Equal values may be shown once. The source made the active and inactive calls.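 The calls were made as follows: active = compounds giving half or more protection of infected cells from virus-caused growth loss, again on retest; inactive = the rest.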

Test system: CEM cells HIV-1 protection, formazan growth assay
Test: NCI AIDS Antiviral Assay
Conditions: for IC50: measured here: growth of uninfected CEM cells
Procedure, shortened: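 Five concentrations of each compound were applied to infected and uninfected human CEM cells. Protection from HIV-1 was judged from growth measured with a soluble formazan assay.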

COC1OC(CS(=O)(=O)O)C(O)C(O)C1O (stereo not given)
outcome: inactive

CSc1nnc2sc(=S)[nH]n12
EC50: > 200 µM | IC50: > 200 µM

CC(C)N(C(=O)C12C3C4C1C1C4(C#N)C3C12C#N)C(C)C (stereo not given)
EC50: > 129 µM | IC50: > 129 µM

O=c1[nH]c(C2CCCCC2)nc2ccc(Cl)cc12
outcome: inactive

C=CCN1CCC23c4c5ccc(O)c4OC2C(=NN=C2CCC4(O)C6Cc7ccc(O)c8c7C4(CCN6CC=C)C2O8)CCC3(O)C1C5 (stereo not given)
EC50: > 200 µM | IC50: 10.5 µM

CC(=O)NC1C(OCc2ccccc2)OC(CO)C(O)C1OCC(=O)NC(C)C(=O)NC(CCC(=O)NCCCCNc1ccc([N+](=O)[O-])c2[nH]c3ccccc3c(=O)c12)C(N)=O (stereo not given)
EC50: 81.3 µM | IC50: > 100 µM

CCNCC(O)COc1ccc2c(c1)[n+]([O-])nc(N)[n+]2[O-] (stereo not given)
EC50: > 200 µM | IC50: 13.8 µM

CC1CC(=O)Nc2ccccc2N1 (stereo not given)
EC50: > 200 µM | IC50: > 200 µM

CCOC(=N)N1CCCCC1
EC50: > 200 µM | IC50: > 200 µM

Nc1nc(N)c2nc(CNc3ccc(C(=O)NC(CCC(=O)O)C(=O)O)cc3F)cnc2n1 (stereo not given)
EC50: > 200 µM | IC50: 0.0631 µM

OCn1nc2c(C3OCCO3)cc3ccccc3n2c1=S
EC50: > 117 µM | IC50: 61.7 µM

CON(C)c1nc2ccccc2o1
EC50: > 200 µM | IC50: 107 µM

CN1C(=O)CN2C(Cl)(Cl)C2(c2ccccc2F)c2cc([N+](=O)[O-])ccc21 (stereo not given)
EC50: > 200 µM | IC50: 141 µM

COc1ccc(Cc2nn(C3OC(COC(C)=O)C(OC(C)=O)C(OC(C)=O)C3OC(C)=O)c(=S)n(-c3ccc(OC)cc3)c2=O)cc1 (stereo not given)
outcome: inactive

O=C(CCc1n[nH]c(=S)o1)Nc1cc(Cl)ccc1Cl
EC50: > 112 µM | IC50: > 112 µM

COC(=O)[C@@]1(C)C(=O)CC[C@@H]1C=O
EC50: > 251 µM | IC50: 50.1 µM

Cc1c2ccncc2c(C)c2c1[nH]c1ccc(F)cc12
EC50: > 200 µM | IC50: 0.437 µM

COc1ccc2nc(-c3ccccc3)cc(N=[N+]=[N-])c2c1
outcome: inactive

COc1ccc(C2SCC(=O)N2NC(=O)c2ccc(NC(C)=O)cc2)cc1 (stereo not given)
EC50: > 35.5 µM | IC50: > 35.5 µM

CCOC(=O)/C(=C\c1ccc(C(=O)OC)cc1)[Se]c1ccccc1
EC50: > 66.1 µM | IC50: 61.7 µM

COc1cc(CC(C(=O)O)C(=O)O)c(OC)cc1CC(C(=O)O)C(=O)O
outcome: inactive

N#CCc1nc(C#N)c(N)o1
EC50: 51.3 µM | IC50: > 200 µM

O=C1CSC(c2ccc([N+](=O)[O-])cc2)N1c1ccc(-c2ccc(-n3c(-c4ccccc4)nc4ccccc4c3=O)cc2)cc1 (stereo not given)
EC50: > 200 µM | IC50: 39.8 µM

CCC(=O)N/N=C(\C=C\c1cccc(O)c1)c1sc(Nc2ccc(C)cc2[N+](=O)[O-])nc1C
EC50: > 77.6 µM | IC50: > 77.6 µM

COC1OC(CCC2NC(CO)C(O)C(O)C2O)C(O)C(O)C1O (stereo not given)
EC50: > 200 µM | IC50: > 200 µM

CC1(C)/C(=N\Nc2ccc([N+](=O)[O-])cc2[N+](=O)[O-])C2CCC1C2 (stereo not given)
EC50: > 200 µM | IC50: > 200 µM

COc1ccc(NC2CC(C)N(C(=O)c3ccccc3)O2)cc1 (stereo not given)
EC50: > 200 µM | IC50: 95.5 µM

CCc1c(C)c2cc3[nH]c(cc4nc(cc5nc(cc1[nH]2)C(C)=C5CCC(=O)OC)C(CCC(=O)OC)=C4C)c(C)c3CC
outcome: inactive

O=c1[nH]c2ccccc2nc1/C=C/NC(=S)Nc1ccccc1
EC50: > 200 µM | IC50: > 200 µM

NNC(=S)NCCNC(=S)NN
EC50: > 200 µM | IC50: > 200 µM

O=C(CCCN1CCC(Nc2ccccc2)(c2nnnn2C2CCCCC2)CC1)c1ccc(F)cc1
EC50: > 200 µM | IC50: 75.9 µM

O=c1n(CCO)nc2n1CCCN2
EC50: > 200 µM | IC50: > 200 µM

CCCCCCCCCCCCCCC(C(=O)O)S(=O)(=O)O (stereo not given)
EC50: > 200 µM | IC50: 155 µM

Cc1ncc2c(n1)-c1ccccc1OC2O (stereo not given)
EC50: > 200 µM | IC50: > 200 µM

O=c1ccn(C/C=C/c2ccccc2)c(=S)n1C/C=C/c1ccccc1
outcome: inactive

COc1ccc(/C=C2\CCC/C(=C\c3ccc(O)c(CN4CCCCC4)c3)C2=O)cc1
EC50: > 200 µM | IC50: 3.16 µM

CN(CCO)c1cnn(CCO)c(=O)c1Cl
EC50: > 200 µM | IC50: > 200 µM

CC1=[N+]([O-])C2(CCCC2)N(O)C1(C)C
EC50: > 200 µM | IC50: > 200 µM

CCO[C@H]1CC(C)C2[C@H](CC3(C)C4CC(OC(C)=O)C5C(C)(C)[C@@H](OC6OCC(O)C(O)C6O)CC[C@@]56C[C@@]46CC[C@]23C)O1 (stereo not given in full)
EC50: > 41.7 µM | IC50: > 41.7 µM

CN1C2Cc3cc4c(cc3[C@@]23Cc2ccc5c(c2[C@@H]1O3)OCO5)OCO4 (stereo not given in full)
EC50: > 200 µM | IC50: 120 µM

O=C(c1ccccc1)N1C2C3CC(OCc4ccccc4)(OCc4ccccc4)C(O3)C21 (stereo not given)
EC50: > 17 µM | IC50: > 17 µM

CCCCCCCCCCCCC(=O)CCCCC(=O)O
outcome: inactive

CC1(C)OC(=O)C(=Cc2cccc(Br)c2)C(=O)O1
EC50: > 794 µM | IC50: 1.86 µM

CCCC(=O)NC(Nc1ccc(S(=O)(=O)Nc2nc(C)cc(C)n2)cc1)(C(F)(F)F)C(F)(F)F
EC50: > 200 µM | IC50: > 200 µM

COc1cc2oc(-c3ccccc3)cc(=O)c2c(O)c1C
EC50: > 33.1 µM | IC50: > 33.1 µM

NC(=O)c1nnn(Cc2ccccc2)c1N
EC50: > 200 µM | IC50: > 200 µM

COc1ccc(/C=C(/C#N)c2ccccc2)cc1
EC50: > 200 µM | IC50: 2.09 µM

C=C(C)C1Cc2c(cc(OC)c3c(=O)c4ccccc4n(C)c23)O1 (stereo not given)
EC50: > 22.4 µM | IC50: > 22.4 µM

C=C(C)[C@@H]1CC=C2[C@H](O)CC(O)C(C)[C@@]2(C)C1 (stereo not given in full)
EC50: > 209 µM | IC50: 51.3 µM

CC[C@H]1CN2CCc3cc(OC)c(OC)cc3[C@@H]2C[C@@H]1C[C@H]1NCCc2c1[nH]c1ccc(O)cc21
outcome: inactive

CN(C)c1cc2ccccc2oc1=O
EC50: > 692 µM | IC50: > 692 µM

O=C(O)c1cc(/C=C/c2cc(O)ccc2O)ccc1O
EC50: > 182 µM | IC50: 15.5 µM

COC(=O)CC(C(C(C)=O)C(=O)OCc1ccccc1)N1C(=O)OC(c2ccccc2)C1c1ccccc1 (stereo not given)
EC50: > 83.2 µM | IC50: > 83.2 µM

CCOC(=O)c1[nH]n(-c2ccccc2)c(=O)c1/C=N/C(N)=S
EC50: > 200 µM | IC50: > 200 µM

COc1cc(OC)c(CSCC(NC(=O)OCC2c3ccccc3-c3ccccc32)C(=O)O)c(OC)c1 (stereo not given)
EC50: > 200 µM | IC50: 105 µM

NC(=O)c1ccccc1NC(=O)C(=O)Cc1nc2ccccc2[nH]c1=O
EC50: > 269 µM | IC50: > 269 µM

O=C=Nc1cccc(S(=O)(=O)c2cccc(N=C=O)c2)c1
EC50: > 200 µM | IC50: > 200 µM

CC(C)OC(=O)c1ccc(NCc2cc(O)ccc2O)cc1
EC50: > 200 µM | IC50: 2.19 µM

COc1ccc2c(c1)C(=O)C13CC(C(=O)OCc4ccccc4)C(OC(C)=O)(CCC21)C3 (stereo not given)
EC50: > 72.4 µM | IC50: > 72.4 µM

CN(C)CCNC(=O)c1cc(NC(=O)c2cc(NC(=O)CC/C=C3/[C@@H]4CC[C@H]3N=N4)cn2C)cn1C
EC50: > 200 µM | IC50: > 200 µM

CSc1nc(Cl)c2c(n1)Sc1nc3cc4c(cc3n1C2O)OCO4 (stereo not given)
EC50: > 100 µM | IC50: 0.525 µM

O=C(O)c1cccc2cccc(C(=O)O)c12.[Hg]
outcome: inactive

Cc1ccc(NC(=O)c2cc(S(=O)(=O)n3cc[nH]c3=O)c(S)cc2Cl)cc1
EC50: > 200 µM | IC50: > 200 µM

COc1ccc(C2SCC(=O)N2c2ccc(-c3ccc(-n4c(-c5ccccc5)nc5ccccc5c4=O)cc3)cc2)cc1 (stereo not given)
EC50: > 200 µM | IC50: 33.9 µM

COC12c3ccccc3-c3ccccc3C1[C@H]1C(=O)OC(=O)[C@H]12 (stereo not given in full)
EC50: > 162 µM | IC50: > 162 µM

Cc1ccc(C2(c3ccc(C)cc3)SC(=C(C#N)C#N)c3ccccc32)cc1
EC50: > 200 µM | IC50: > 200 µM

CC(C)=CCOc1cc(NC(=S)c2ccoc2C)ccc1Cl
EC50: 0.0759 µM | IC50: 30.2 µM

CCOC(=O)C/C=C\S[C@@H]1[C@H](NC(=O)COc2ccccc2)C(=O)N1C(C(=O)OCc1ccc([N+](=O)[O-])cc1)=C(C)C
EC50: > 4.37 µM | IC50: > 4.37 µM

COc1ccc(OC)c2c1C(=O)C1CC1(Br)C2=O (stereo not given)
outcome: inactive

O=C(O)C1CC(C2CCCCN2)CN2CCCCC12 (stereo not given)
EC50: > 200 µM | IC50: > 200 µM

O=c1[nH]c(=O)c2c3n(cc2[nH]1)CCCCC3
EC50: > 200 µM | IC50: > 200 µM

Cn1c2c(c3ccccc31)CCN(CCCCN1CCc3c(n(C)c4ccccc34)C1=O)C2
EC50: > 40.7 µM | IC50: > 40.7 µM

CC(C)Oc1cc2c(c3oc(=O)c4c(c13)CCCC4)C(=O)[C@H](C)[C@@H](C)O2
EC50: > 200 µM | IC50: 12.3 µM

COc1ccccc1/C(=N\OCCC(=O)O)c1cccs1
outcome: inactive

CCC(=O)NC(Nc1cc(C)on1)(C(F)(F)F)C(F)(F)F
EC50: > 200 µM | IC50: > 200 µM

CCC1c2ccc3cc(OC)ccc3c2CCC1(C)C(=O)O (stereo not given)
outcome: inactive

CO/C=N/c1cn2c(n1)CN=C2
EC50: > 200 µM | IC50: > 200 µM

O=C(O)c1cc(N=Nc2cc(S(=O)(=O)O)c3cccnc3c2O)ccc1/C=C/c1ccc(N=Nc2cc(S(=O)(=O)O)c3cccnc3c2O)cc1C(=O)O
EC50: 4.27 µM and 21.4 µM | IC50: 61.7 µM and > 200 µM

COC1=C(C)C(=O)c2ncccc2C1=O
outcome: inactive

COc1cccc(C2=CCCCCC2)c1OC
EC50: > 200 µM | IC50: 79.4 µM

CC(CN(C)C)OCCn1c2c(c3ccccc31)CCCC2 (stereo not given)
EC50: > 200 µM | IC50: 13.5 µM

NC(=O)N/N=C1/C2CC3CC(C2)C1C3 (stereo not given)
EC50: > 200 µM | IC50: > 200 µM

CC/C(Br)=C1\CC2c3c(c4ccccc4n3C)CC(C1=O)N2Cc1ccccc1 (stereo not given)
outcome: inactive

Cc1nnc2sc(C(=O)O)nn12
EC50: > 200 µM | IC50: > 200 µM

CC(=O)N1CC2(CN(C(C)=O)CC3(C1)OCCO3)OCCO2
EC50: > 200 µM | IC50: > 200 µM

COc1cc(C2c3cc4c(cc3OC(N3CCOCC3)C2C)OCO4)cc(OC)c1OC (stereo not given)
EC50: > 200 µM | IC50: 1.86 µM

O=C1NC(=O)C(CCSSCCC2NC(=O)NC2=O)N1 (stereo not given)
EC50: > 200 µM | IC50: > 200 µM

COCN(C)c1nc(N(C)C)nc(N(C)C)n1
EC50: > 100 µM | IC50: 70.8 µM

O=C(N/N=C/c1cccc(O)c1O)N/N=C/c1cccc(O)c1O
EC50: > 200 µM | IC50: 6.76 µM

OC(CCN1CCOCC1)c1ccc(Sc2ccccc2)cc1 (stereo not given)
EC50: > 200 µM | IC50: 36.3 µM
